# Source: patent US20240402196A1 (Exact Sciences Corporation, priority 2018, published 2024)
# Read-outs that look alike come from different tables or passages of the source.
# Molecular target: hemoglobin in stool samples (Homo sapiens, UniProt P68871+P69905)
# Experiment: Accelerated shipping simulation (35C 16 hour challenge), hemoglobin % recovery by ELISA;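 also: stool hemoglobin measured by ELISA before and after thermal-cycler shipping stress, stability given as percent of pre-stress hemoglobin recovered afterwards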
# Parameters: from tissue; host or cells: stool samples
# hemoglobin in stool samples, sequence (P69905 2-142 limits assumed): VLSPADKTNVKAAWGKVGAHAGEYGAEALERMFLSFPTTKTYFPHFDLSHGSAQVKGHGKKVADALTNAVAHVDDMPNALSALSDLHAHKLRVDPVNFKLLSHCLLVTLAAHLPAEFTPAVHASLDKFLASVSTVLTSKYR
# hemoglobin in stool samples, sequence (P68871 2-147 limits assumed): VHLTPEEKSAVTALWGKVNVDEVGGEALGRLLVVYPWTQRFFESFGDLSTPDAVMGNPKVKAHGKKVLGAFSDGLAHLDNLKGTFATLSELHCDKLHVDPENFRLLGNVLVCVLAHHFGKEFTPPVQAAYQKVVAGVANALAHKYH
compound,measurement,setting,value
O=C([O-])CC[C@@H](C(=O)[O-])N(CC(=O)[O-])CC(=O)[O-].[Na+].[Na+].[Na+].[Na+],Results,Additive Concentration 0.1 uM,No Improvement
same,Results,Additive Concentration 1 uM,No Improvement
same,Results,additive concentration 5 uM,No Improvement
same,Results,additive concentration 0.01 mM,No Improvement
same,Results,additive concentration 0.1 mM,No Improvement
same,Results,additive concentration 1 mM,No Improvement
same,Results,additive concentration 10 mM,No Improvement
O=C(O)CC(NCCNC(CC(=O)O)C(=O)O)C(=O)O (stereo not drawn),Results,additive concentration 10 uM,No Improvement
same,Results,additive concentration 100 uM,No Improvement
same,Results,additive concentration 1 mM,No Improvement
same,Results,additive concentration 10 mM,No Improvement
C=CC1=C(C)/C(=C/C2=NC(=C\c3[nH]c(/C=C4\NC(=O)C(C)=C4C=C)c(C)c3CCC(=O)O)/C(CCC(=O)O)=C2C)NC1=O [Biliverdin],Results,additive concentration 0.00003%,No Improvement
same,Results,additive concentration 0.00030%,No Improvement
same,Results,additive concentration 0.00300%,No Improvement
same,Results,additive concentration 0.03000%,No Improvement
Deferoxamine Mesylate Salt,Results,additive concentration 10 uM,No Improvement
same,Results,additive concentration 100 uM,No Improvement
same,Results,additive concentration 1 mM,No Improvement
same,Results,additive concentration 5 mM,No Improvement
CCCCn1cc[n+](C)c1.[Cl-] [1-Butyl-3-methylimidazoium Chloride],Results,additive concentration 0.01 mM,No Improvement
same,Results,additive concentration 0.1 mM,No Improvement
same,Results,additive concentration 1 mM,No Improvement
C=CC1=C(C)c2cc3[n-]c(cc4nc(cc5[n-]c(cc1n2)c(C)c5C=C)C(C)=C4CCC(=O)O)c(CCC(=O)O)c3C.[Cl-].[Co+3] [Protoporphyrin IX Cobalt (Vendor 1)],Results,additive concentration 1.25 uM,Improvement in % Hb
same,Results,additive concentration 5 uM,Improvement in % Hb
N[C@@H](CS)C(=O)O [Cysteine],Results,Additive Concentration 0.1 uM,No Improvement
same,Results,Additive Concentration 1 uM,No Improvement
same,Results,additive concentration 5 uM,No Improvement
same,Results,additive concentration 0.01 mM,No Improvement
same,Results,additive concentration 0.1 mM,No Improvement
same,Results,additive concentration 1 mM,No Improvement
same,Results,additive concentration 10 mM,No Improvement
Dextran Sulphate,Results,Additive Concentration 1 uM,No Improvement
same,Results,additive concentration 0.2 uM,No Improvement
same,Results,additive concentration 2 uM,No Improvement
same,Results,additive concentration 0.5 mM,No Improvement
OC[C@H]1O[C@H](OC[C@H]2O[C@H](O[C@]3(CO)O[C@H](CO)[C@@H](O)[C@@H]3O)[C@H](O)[C@@H](O)[C@@H]2O)[C@H](O)[C@@H](O)[C@H]1O [Raffinose],Results,additive concentration 5 uM,No Improvement
same,Results,additive concentration 50 uM,No Improvement
same,Results,additive concentration 5 mM,No Improvement
same,Results,additive concentration 24 mM,No improvement
O=C(O)CCP(CCC(=O)O)CCC(=O)O [TCEP],Results,additive concentration 0.005 mM,No Improvement
same,Results,additive concentration 0.01 mM,No Improvement
same,Results,additive concentration 0.1 mM,No Improvement
same,Results,additive concentration 250 uM,No Improvement
same,Results,additive concentration 500 uM,No Improvement
same,Results,additive concentration 750 uM,No Improvement
same,Results,additive concentration 1 mM,No Improvement
O=S(=O)([O-])CS(=O)(=O)[O-].[K+].[K+] [Methanedisulfonic acid dipotassium salt],Results,additive concentration 10.69 mM,No Improvement
c1c[nH]cn1 [Imidazole],Results,additive concentration 25 uM,No Improvement
same,Results,additive concentration 0.5 mM,No Improvement
"O.O=c1cc(-c2ccccc2)oc2c(O)c(O)ccc12 [7,8 dihydroxyflavone hydrate]",Results,additive concentration 0.01 mM,No Improvement
same,Results,additive concentration 0.1 mM,No improvement
same,Results,additive concentration 1 mM,No Improvement
N[C@@H](CCC(=O)N[C@@H](CS)C(=O)NCC(=O)O)C(=O)O [Glutathione],Results,additive concentration 10 uM,No Improvement
same,Results,additive concentration 100 uM,No Improvement
same,Results,additive concentration 1 mM,No Improvement
same,Results,additive concentration 3 mM,No Improvement
O=C([O-])CN(CCN(CC(=O)[O-])CC(=O)O)CC(=O)O.[Na+].[Na+] [EDTA: Disodium Salt],Results,additive concentration 5 mM,No Improvement
same,Results,additive concentration 10 mM,No Improvement
same,Results,additive concentration 30 mM,No Improvement
C=CC1=C(C)c2cc3[n-]c(cc4[n-]c(cc5nc(cc1n2)C(C)=C5C=C)c(C)c4CCC(=O)O)c(CCC(=O)O)c3C.[Cl-].[Fe+3] [Hemin (DMSO)],Results,additive concentration 0.0003%,Improvement in % Hb
O=S(=O)([O-])CCCS(=O)(=O)[O-].[Na+].[Na+] [Propanedisulfonic acid disodium salt],Results,additive concentration 0.4 mM,No Improvement
same,Results,additive concentration 4 mM,No Improvement
same,Results,additive concentration 40 mM,No Improvement
NCCCC[C@H](N)C(=O)O [Lysine],Results,additive concentration 0.0687 mM,No Improvement
same,Results,additive concentration 0.687 mM,No Improvement
same,Results,additive concentration 6.87 mM,No Improvement
C=CC1=C(C)c2cc3[n-]c(cc4[n-]c(cc5nc(cc1n2)C(C)=C5C=C)c(C)c4CCC(=O)O)c(CCC(=O)O)c3C.O.[Fe+2] [Hematin],Results,additive concentration 6 uM,Improvement in % Hb
"O=C(/C=C/C(=O)Oc1c(Br)cc(Br)cc1C(=O)O)Oc1c(Br)cc(Br)cc1C(=O)O [Bis(3,5-dibromosalilcyl)fumarate]",Results,additive concentration 5 uM,No Improvement
same,Results,additive concentration 10 uM,No Improvement
same,Results,additive concentration 100 uM,No Improvement
C=CC1=C(C)c2cc3[n-]c(cc4nc(cc5[n-]c(cc1n2)c(C)c5C=C)C(C)=C4CCC(=O)O)c(CCC(=O)O)c3C.[Cl-].[Fe+3] [Hemin (H2O:NaOH)],Results,additive concentration 0.00005%,Improvement in % Hb
same,Results,"additive concentration 0.00005%, pH 6.5",Improvement in % Hb
same,Results,additive concentration 0.00009%,Improvement in % Hb
same,Results,"additive concentration 0.00009%, pH 6.5",Improvement in % Hb
same,Results,additive concentration 0.0003%,Improvement in % Hb
same,Results,additive concentration 0.003%,Improvement in % Hb
same,Results,"additive concentration 0.003%, pH 6.5",Improvement in % Hb
same,Results,additive concentration […],Improvement in % Hb
same,Results,"additive concentration […], pH 6.5",Improvement in % Hb
NC(N)=O [Urea],Results,additive concentration 25 uM,No Improvement
same,Results,additive concentration 250 uM,No Improvement
same,Results,additive concentration 500 uM,No Improvement
same,Results,additive concentration 5 mM,No Improvement
same,Results,additive concentration 50 mM,No Improvement
same,Results,additive concentration 100 mM,No Improvement
C=CCn1cc[n+](C)c1.[Cl-] [1-Allyl-3-methylimidazolium Chloride],Results,additive concentration 0.01 mM,No Improvement
same,Results,additive concentration 0.1 mM,No Improvement
same,Results,additive concentration 1 mM,No Improvement
N[C@@H](Cc1c[nH]cn1)C(=O)O [Histidine],Results,additive concentration 0.0028 mM,No Improvement
same,Results,additive concentration 0.0228 mM,No Improvement
same,Results,additive concentration 0.228 mM,No Improvement
Heparin,Results,additive concentration 25 uM,No Improvement
same,Results,additive concentration 250 uM,No Improvement
CC1=NCC[C@@H](C(=O)O)N1 [Ectoine],Results,additive concentration 0.718 mM,No Improvement
same,Results,additive concentration 5 mM,No Improvement
C=CC1=C(C)c2cc3[n-]c(cc4nc(cc5[n-]c(cc1n2)c(C)c5C=C)C(C)=C4CCC(=O)O)c(CCC(=O)O)c3C.[Cl-].[Co+3] [Protoporphyrin IX Cobalt (Vendor 2)],Results,additive concentration 1.25 uM,Improvement in % Hb
same,Results,additive concentration 5 uM,Improvement in % Hb
C=CC1=C(C)c2cc3[n-]c(cc4nc(cc5[n-]c(cc1n2)c(C)c5C=C)C(C)=C4CCC(=O)O)c(CCC(=O)O)c3C.[Cl-].[Ga+3] [Protoporphyrin IX Gallium],Results,additive concentration 1.25 uM,No Improvement
same,Results,additive concentration 5 uM,No Improvement
CC(O)CO (stereo not drawn) [Propylene Glycol],Results,Additive Concentration 0.10%,No Improvement
same,Results,Additive Concentration 0.50%,No Improvement
same,Results,Additive Concentration 1%,No Improvement
O=C(O)CC(NC(CC(=O)O)C(=O)O)C(=O)O (stereo not drawn) [Iminodisuccinic acid],Results,additive concentration 10 mM,No Improvement
NCC(=O)O [Glycine (no sample)],Results,,No improvement
C1N2CN3CN1CN(C2)C3 [Hexamethylenetetramine],Results,additive concentration 14 mM,No Improvement
same,Results,additive concentration 140 mM,No Improvement
same,Results,additive concentration 500 mM,No Improvement
O=c1c(-c2ccc(O)cc2)coc2cc(O)ccc12 [Daidzein],Results,additive concentration 0.01 mM,No Improvement
same,Results,additive concentration 0.1 mM,No Improvement
same,Results,additive concentration 1 mM,No Improvement
O=c1[nH]c(=O)c2[nH]c(=O)[nH]c2[nH]1 [Uric Acid],Results,additive concentration 0.6 uM,No Improvement
same,Results,additive concentration 6 uM,No Improvement
same,Results,additive concentration 60 uM,No Improvement
O=P(O)(O)CN(CP(=O)(O)O)CP(=O)(O)O [ATMP],Results,additive concentration 0.02 mM,No Improvement
same,Results,additive concentration 0.2 mM,No Improvement
same,Results,additive concentration 2 mM,No Improvement
O=C(O)CCCCC1CCSS1 (racemic) [(±)-α-Lipoic acid],Results,additive concentration […],No Improvement
O[C@H](CS)[C@H](O)CS (racemic) [Dithiothreitol],Results,Additive Concentration 1 uM,No Improvement
same,Results,additive concentration 10 uM,No Improvement
same,Results,additive concentration 0.1 mM,No Improvement
same,Results,additive concentration 1 mM,No Improvement
NO [Hydroxylamine],Results,additive concentration 25 uM,No Improvement
same,Results,additive concentration 0.5 mM,No Improvement
CC(C(=O)[O-])N(CC(=O)[O-])CC(=O)[O-].O.[Na+].[Na+].[Na+] (stereo not drawn),Results,additive concentration 0.1 mM,No Improvement
same,Results,additive concentration 1 mM,No Improvement
same,Results,additive concentration 10 mM,No Improvement
O=C(O)[C@@H](COP(=O)(O)O)OP(=O)(O)O [Diphosphoglycerate (DPG)],Results,additive concentration 0.0005 mM,No Improvement
same,Results,additive concentration 0.5 uM,No Improvement
same,Results,additive concentration 0.002 mM,No Improvement
same,Results,additive concentration 5 uM,No Improvement
same,Results,additive concentration 50 uM,No Improvement
same,Results,additive concentration 1 mM,No Improvement
[F-].[Na+] [Sodium Fluoride],Results,additive concentration 85 uM,No Improvement
same,Results,additive concentration 850 uM,No Improvement
O=S([O-])([O-])=S.[Na+].[Na+] [Sodium Thiosulfate],Results,,No Improvement
